# Structures can show the parent of a compound that is named as a salt.
# What was measured:
# [1] = test system: ISC-enriched organoids; assay: Primary screen, 384-well 2.5-D organoid differentiation (ENR+CD, 6 days): basal lysozyme secretion (LYZ.NS); type: cell-based, murine; conditions: for Dose.FC.LYZ.NS: ENR+CD, 6 days, FC vs plate median; for Z.LYZ.NS: standard z score of FC
# From the text: (§1) High-throughput screening.
# [2] = test system: ISC-enriched organoids; assay: Primary screen, 384-well 2.5-D organoid differentiation (ENR+CD, 6 days, Target Selective Inhibitor Library, vs whole-plate median): ATP (CellTiter-Glo 3D, CTG); conditions: for Dose.FC.CTG: ENR+CD, 6 days, FC vs plate median; for Z.CTG: standard z score of FC
# [3] = test system: ISC-enriched organoids; assay: Primary screen, 384-well 2.5-D organoid differentiation (ENR+CD, 6 days): carbachol-induced lysozyme secretion (LYZ.S); type: cell-based, murine; conditions: ENR+CD, 6 days, FC vs plate median
# From the text: as §1
Structure (SMILES),Dose.FC.LYZ.NS ([1]; Dose 0.08 uM),Z.LYZ.NS ([1]; Dose 0.08 uM),Dose.FC.LYZ.NS ([1]; Dose 0.40 uM),Z.LYZ.NS ([1]; Dose 0.40 uM),Dose.FC.LYZ.NS ([1]; Dose 2.00 uM),Z.LYZ.NS ([1]; Dose 2.00 uM),Dose.FC.LYZ.NS ([1]; Dose 10.00 uM),Z.LYZ.NS ([1]; Dose 10.00 uM),Dose.FC.CTG ([2]; Dose 0.08 uM),Z.CTG ([2]; Dose 0.08 uM),Dose.FC.CTG ([2]; Dose 0.40 uM),Z.CTG ([2]; Dose 0.40 uM),Dose.FC.CTG ([2]; Dose 2.00 uM),Z.CTG ([2]; Dose 2.00 uM),Dose.FC.CTG ([2]; Dose 10.00 uM),Z.CTG ([2]; Dose 10.00 uM),Dose.FC.LYZ.S ([3]; Dose 0.08 uM),Dose.FC.LYZ.S ([3]; Dose 0.40 uM),Dose.FC.LYZ.S ([3]; Dose 2.00 uM),Dose.FC.LYZ.S ([3]; Dose 10.00 uM)
"CCC(CC)CC1(C(=O)Nc2ccccc2SC(=O)C(C)C)CCCCC1 [Dalcetrapib (JTT-705, RO4607381)]",0.055 log 2 fold change,0.475,−0.037 log 2 fold change,−0.324,−0.034 log 2 fold change,−0.296,−0.074 log 2 fold change,−0.643,0.112 log 2 fold change,0.268,−0.006 log 2 fold change,−0.014,0.079 log 2 fold change,0.188,0.136 log 2 fold change,0.324,0.049 log 2 fold change,0.104 log 2 fold change,0.098 log 2 fold change,−0.113 log 2 fold change
COc1cccc2c1C(=O)c1c(O)c3c(c(O)c1C2=O)C[C@@](O)(C(C)=O)C[C@@H]3O[C@H]1C[C@H](N)[C@H](O)[C@H](C)O1 [Daunorubicin HCl],−0.136 log 2 fold change,−1.188,−0.241 log 2 fold change,−2.099,−0.262 log 2 fold change,−2.280,−0.260 log 2 fold change,−2.262,−0.467 log 2 fold change,−1.115,−0.601 log 2 fold change,−1.436,−0.817 log 2 fold change,−1.950,−1.100 log 2 fold change,−2.628,−0.096 log 2 fold change,−0.329 log 2 fold change,−0.343 log 2 fold change,−0.374 log 2 fold change
C[C@]12C=CC(=O)N[C@@H]1CC[C@@H]1[C@@H]2CC[C@]2(C)[C@@H](C(=O)Nc3cc(C(F)(F)F)ccc3C(F)(F)F)CC[C@@H]12 [Dutasteride],0.065 log 2 fold change,0.568,0.006 log 2 fold change,0.052,−0.105 log 2 fold change,−0.915,−0.092 log 2 fold change,−0.799,0.057 log 2 fold change,0.137,−0.266 log 2 fold change,−0.636,−0.098 log 2 fold change,−0.234,−0.057 log 2 fold change,−0.137,0.001 log 2 fold change,−0.054 log 2 fold change,−0.074 log 2 fold change,−0.151 log 2 fold change
CCn1c2ccccc2c2cc(Nc3ccnc(NCCCN4CCOCC4)n3)ccc21 [EHop-016],0.177 log 2 fold change,1.537,0.035 log 2 fold change,0.302,0.029 log 2 fold change,0.252,−0.203 log 2 fold change,−1.769,0.081 log 2 fold change,0.193,0.062 log 2 fold change,0.147,0.088 log 2 fold change,0.211,−0.757 log 2 fold change,−1.808,0.091 log 2 fold change,0.012 log 2 fold change,−0.011 log 2 fold change,−0.299 log 2 fold change
COc1cccc(C=NCCN=Cc2cccc(OC)c2[O-])c1[O-].[Cl-].[Mn+3] [EUK 134],0.068 log 2 fold change,0.594,0.003 log 2 fold change,0.026,0.028 log 2 fold change,0.247,−0.085 log 2 fold change,−0.741,−0.015 log 2 fold change,−0.035,−0.162 log 2 fold change,−0.387,0.091 log 2 fold change,0.217,−0.024 log 2 fold change,−0.057,0.025 log 2 fold change,0.057 log 2 fold change,−0.034 log 2 fold change,−0.132 log 2 fold change
NC(=O)C1CCCc2c1[nH]c1ccc(Cl)cc21 (stereo not shown) [EX 527 (Selisistat)],0.100 log 2 fold change,0.871,0.059 log 2 fold change,0.512,0.030 log 2 fold change,0.261,0.057 log 2 fold change,0.494,0.240 log 2 fold change,0.574,0.174 log 2 fold change,0.415,0.341 log 2 fold change,0.814,0.320 log 2 fold change,0.766,0.062 log 2 fold change,0.047 log 2 fold change,−0.051 log 2 fold change,−0.011 log 2 fold change
"COc1cc2c(cc1Cc1cccc(Cl)c1F)c(=O)c(C(=O)O)cn2[C@H](CO)C(C)C [Elvitegravir (GS-9137, JTK-303)]",−0.047 log 2 fold change,−0.412,−0.069 log 2 fold change,−0.598,−0.094 log 2 fold change,−0.821,−0.090 log 2 fold change,−0.782,−0.001 log 2 fold change,−0.001,−0.040 log 2 fold change,−0.095,−0.344 log 2 fold change,−0.823,−0.737 log 2 fold change,−1.760,−0.010 log 2 fold change,0.092 log 2 fold change,−0.126 log 2 fold change,−0.135 log 2 fold change
OC[C@H]1O[C@@H](c2ccc(Cl)c(Cc3ccc(O[C@H]4CCOC4)cc3)c2)[C@H](O)[C@@H](O)[C@@H]1O [Empagliflozin (BI 10773)],−0.006 log 2 fold change,−0.052,−0.034 log 2 fold change,−0.294,−0.009 log 2 fold change,−0.081,0.017 log 2 fold change,0.144,−0.296 log 2 fold change,−0.707,−0.075 log 2 fold change,−0.178,−0.192 log 2 fold change,−0.458,−0.134 log 2 fold change,−0.320,−0.051 log 2 fold change,−0.055 log 2 fold change,−0.103 log 2 fold change,−0.022 log 2 fold change
